Type in all cases: cell-based
One experiment relates to Bacillus subtilis. Nature of the experiment: MIC against bacteria (serial dilution in nutrient broth). The conditions noted are these: 37 C., 48 hrs. As to the method:
(§1) In order to assay the effectiveness of the compounds of the present invention, the MIC(minimum inhibitory concentration) on bacteria, yeast and fungi were determined.
(§2) Minimum inhibitory concentrations were determined according to following procedure.
(§3) For the bacteriostatic activity, the said invention compounds were serially diluted with 10 ml of sterile nutrient broth. Each tube was inoculated with 1 drop of an aqueous suspension of the various test organisms containing approximately 1×10^6 organisms/ml and incubated at 37 C. for 48 hrs. After incubation, the IMC of the said invention compounds were determined as the lowest concentration of compound in which no microscopic evidence of growth was observed. The compounds and the MIC value against bacteria of the compounds can be seen from the following table 1.

The test system of the next experiment is Escherichia coli. The experiment is described as above. The conditions noted are these: 37 C., 48 hrs. The protocol:
as §1, §2, §3

In a further experiment the test system is Pseudomonas aeruginosa. Described as above. The conditions noted are these: 37 C., 48 hrs. The protocol:
as §1, §2, §3

The subject of a further experiment is Staphylococcus aureus. Described as above. The conditions noted are these: 37 C., 48 hrs. As to the method:
as §1, §2, §3

A further experiment concerns Aspergillus flavus. Nature of the experiment: MIC for molds (sabouraud dextrose agar). The following applies: 168 h, 25 C., 7 days, read-out: MIC for molds and yeast. The protocol:
as §1
(§4) For the evaluation of fungistatic activity, each compound was serially diluted in test tubes to give the desired concentration when mixed with 20 ml of steriled molten sabouraud dextrose agar, and poured into sterile petri dishes.
(§5) After the medium was solidified, the spore-suspension of the each test organisms were inoculated by streaking and incubated at 25 C. for 7 days.
(§6) The minimum concentration of the compound effective for inhibiting the growth is determined by examining the growth of the each organism.
(§7) In the above mentioned method the MIC for yeast and molds of the compounds A,B,C,D and E were obtained and can be seen from the table 2.

The next experiment has as its system Aspergillus niger. Briefly: MIC for molds (sabouraud dextrose agar). The following applies: 168 h, 25 C., 7 days, read-out: MIC for molds and yeast. As to the method:
as §1, §4, §5, §6, §7

For the next experiment, the system named is Fusarium solani. Briefly: MIC for molds (sabouraud dextrose agar). The following applies: 168 h, 25 C., 7 days, read-out: MIC for molds and yeast. As to the method:
as §1, §4, §5, §6, §7

For another experiment, the system named is Tricoderma virid. Nature of the experiment: MIC for molds (sabouraud dextrose agar). The conditions noted are these: 168 h, 25 C., 7 days, read-out: MIC for molds and yeast. The protocol: as §1, §4, §5, §6, §7
The subject of another experiment is Candida albicans. Briefly: MIC for yeast (sabouraud dextrose agar). The conditions noted are these: 168 h, 25 C., 7 days, read-out: MIC for molds and yeast. The protocol: as §1, §4, §5, §6, §7
For another experiment, the system named is bacteria. Nature of the experiment: MIC against bacteria, summary over the test bacteria. The following applies: for MIC: 48 h, four bacteria of table 1, read-out: MIC value (range over the test bacteria). The protocol: as §1, §2, §3
The subject of experiment [1] is micro-organisms, including bacteria, yeast and molds. Briefly: antimicrobial activity, bacteria, yeast and molds. The conditions noted are these: comparison of table 2 with table 1. As to the method: as §1, §2, §3, §4, §5, §6
The next experiment has as its system molds and yeast. Briefly: fungistatic activity, summary over molds and yeast. The conditions noted are these: from table 2. The protocol: as §1, §4, §5, §6, §7

Converted amounts (≈) assume the structure as drawn.

We go through 5 molecules from US4440934A, “5-(4-Hydroxyphenyl) hydantoin derivatives” (Pacific Chemical Ind. Co., Ltd., priority 1981, dated 1984).

As usually defined, the MIC is the least concentration at which growth counts as inhibited. For the molecule `CC(O)N1C(=O)C(c2ccc(O)cc2)N(C(C)O)C1=O` (centres unmarked) [C, 5-(4-hydroxyphenyl)-1,3-bis (1-hydroxyethyl)hydantoin], the MIC with Bacillus subtilis was found to be 1000 µg/mL (≈ 3.57 mM); against Escherichia coli it was 700 µg/mL (≈ 2.5 mM); with Pseudomonas aeruginosa it was 1200 µg/mL (≈ 4.28 mM); against Staphylococcus aureus, 700 µg/mL (≈ 2.5 mM); in the experiment with Aspergillus flavus, 5000 µg/mL (≈ 17.8 mM); with Aspergillus niger it was 4000 µg/mL (≈ 14.3 mM). The MIC was 3000 µg/mL (≈ 10.7 mM) in the experiment on Fusarium solani, 3000 µg/mL (≈ 10.7 mM) in the experiment on Tricoderma virid, 5000 µg/mL (≈ 17.8 mM) with Candida albicans and 700 to 1500 µg/mL (≈ 2.5 to 5.35 mM) with bacteria. For the same molecule, the “activity against bacteria compared with fungi and yeast” value in experiment [1] is “by far stronger activities against bacteria than fungi and yeast”.

With `O=C1NC(c2ccc(O)cc2)C(=O)N1CO` (centres unmarked) [A, 5-(4-hydroxyphenyl)-3-hydroxymethylhydantoin], the MIC was 300 µg/mL (≈ 1.35 mM) against Bacillus subtilis; 100 µg/mL (≈ 0.45 mM) with Escherichia coli; 200 µg/mL (≈ 0.9 mM) in the experiment with Pseudomonas aeruginosa; 200 µg/mL (≈ 0.9 mM) in the experiment on Staphylococcus aureus; 3000 µg/mL (≈ 13.5 mM) in the experiment with Aspergillus flavus; 2000 µg/mL (≈ 9 mM) in the experiment on Aspergillus niger. The MIC was 1500 µg/mL (≈ 6.75 mM) in the experiment on Fusarium solani, 1000 µg/mL (≈ 4.5 mM) in the experiment on Tricoderma virid, 4000 µg/mL (≈ 18 mM) in the experiment on Candida albicans and 100 to 300 µg/mL (≈ 0.45 to 1.35 mM) in the experiment with bacteria. Besides, the “strength relative to compound C and D (times as strong)” value in the experiment on bacteria (from MIC values of table 1) is “about 10 times”. In the experiment on molds and yeast, the “fungistatic activity compared with the compounds C and D” value was “stronger fungistatic activities than the compounds C and D”. In addition, the “activity against bacteria compared with fungi and yeast” value in experiment [1] was “by far stronger activities against bacteria than fungi and yeast”.

On to `O=C1NC(c2ccc(O)c(Cl)c2)C(=O)N1CO` (centres unmarked) [E, 5-(3-Chloro-4-hydroxyphenyl)-3-hydroxymethylhydantoin], for which the MIC against Bacillus subtilis is 500 µg/mL (≈ 1.95 mM); in the experiment with Escherichia coli, 100 µg/mL (≈ 0.39 mM); in the experiment on Pseudomonas aeruginosa, 100 µg/mL (≈ 0.39 mM); with Staphylococcus aureus, 100 µg/mL (≈ 0.39 mM); in the experiment on Aspergillus flavus it was 2000 µg/mL (≈ 7.79 mM); with Aspergillus niger, 2000 µg/mL (≈ 7.79 mM). In addition, the MIC with Fusarium solani is 1000 µg/mL (≈ 3.9 mM); in the experiment on Tricoderma virid, 1000 µg/mL (≈ 3.9 mM); with Candida albicans, 2000 µg/mL (≈ 7.79 mM); in the experiment on bacteria it was 100 to 500 µg/mL (≈ 0.39 to 1.95 mM). Also, the “fungistatic activity compared with the compounds C and D” value in the experiment on molds and yeast was “stronger fungistatic activities than the compounds C and D”. Further, the “activity against bacteria compared with fungi and yeast” value in experiment [1] was “by far stronger activities against bacteria than fungi and yeast”.

On to `O=C1C(c2ccc(O)cc2)N(CO)C(=O)N1CO` (centres unmarked) [B, 5-(4-hydroxyphenyl)-1,3-bis (hydroxymethyl)hydantoin], for which the MIC in the experiment with Bacillus subtilis worked out at 200 µg/mL (≈ 0.793 mM); with Escherichia coli, 100 µg/mL (≈ 0.396 mM); in the experiment with Pseudomonas aeruginosa, 100 µg/mL (≈ 0.396 mM); in the experiment with Staphylococcus aureus, 100 µg/mL (≈ 0.396 mM); with Aspergillus flavus, 2000 µg/mL (≈ 7.93 mM); with Aspergillus niger, 1000 µg/mL (≈ 3.96 mM). For the same molecule, the MIC in the experiment on Fusarium solani is 1000 µg/mL (≈ 3.96 mM); in the experiment with Tricoderma virid, 1000 µg/mL (≈ 3.96 mM); in the experiment on Candida albicans, 2000 µg/mL (≈ 7.93 mM); in the experiment on bacteria, 100 to 200 µg/mL (≈ 0.396 to 0.793 mM). The “fungistatic activity compared with the compounds C and D” value in the experiment on molds and yeast is “stronger fungistatic activities than the compounds C and D”. Moreover, in experiment [1], the “activity against bacteria compared with fungi and yeast” value is “by far stronger activities against bacteria than fungi and yeast”.

As for `CCC(O)N1C(=O)C(c2ccc(O)cc2)N(C(O)CC)C1=O` (centres unmarked) [D, 5-(4-hydroxyphenyl)-1,3-bis (1-hydroxypropyl)hydantoin], the minimal inhibitory concentration (MIC) with Bacillus subtilis worked out at 1200 µg/mL (≈ 3.89 mM); in the experiment with Escherichia coli, 900 µg/mL (≈ 2.92 mM); in the experiment on Pseudomonas aeruginosa it was 1500 µg/mL (≈ 4.86 mM); against Staphylococcus aureus it was 1000 µg/mL (≈ 3.24 mM); with Aspergillus flavus, 5000 µg/mL (≈ 16.2 mM); in the experiment on Aspergillus niger, 3000 µg/mL (≈ 9.73 mM). In addition, the minimal inhibitory concentration (MIC) in the experiment on Fusarium solani is 3000 µg/mL (≈ 9.73 mM); in the experiment on Tricoderma virid, 2000 µg/mL (≈ 6.49 mM); in the experiment with Candida albicans, 5000 µg/mL (≈ 16.2 mM); in the experiment with bacteria, 700 to 1500 µg/mL (≈ 2.27 to 4.86 mM). In experiment [1], the “activity against bacteria compared with fungi and yeast” value is “by far stronger activities against bacteria than fungi and yeast”.
